Several values for one entry are separate records, joined by “and”; a condition that tells them apart may be missing. Equal values may be shown once. Toxic doses and inconclusive results are not listed.
System: L1210 leukemia ip in BDF1 mice, survival T/C
Assay: NCI In Vivo Anticancer Drug Screen. Data for tumor model L1210 Leukemia (intraperitoneal) in B6D2F1 (BDF1) mice
Conditions: endpoint: mean survival time, higher = longer survival
Method in brief: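 Tumor cells were implanted, animals were treated, and survival was followed. The result divides the treated measurement by the vehicle-control measurement.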

[1] = dose: 100.0 mg/kg/injection, schedule: Q01DX001 (ip), vehicle: saline
[2] = dose: 200.0 mg/kg/injection, schedule: Q01DX001 (ip), vehicle: saline
[3] = dose: 400.0 mg/kg/injection, schedule: Q01DX001 (ip), vehicle: saline
[4] = dose: 100.0 mg/kg/injection, schedule: Q01DX001 (ip), vehicle: Klucel (hydroxypropylcellulose) (HPC)
[5] = dose: 200.0 mg/kg/injection, schedule: Q01DX001 (ip), vehicle: Klucel (hydroxypropylcellulose) (HPC)
[6] = dose: 100.0 mg/kg/injection, schedule: Q01DX001 (ip), vehicle: carboxymethylcellulose (CMC)
[7] = dose: 200.0 mg/kg/injection, schedule: Q01DX001 (ip), vehicle: carboxymethylcellulose (CMC)
[8] = dose: 400.0 mg/kg/injection, schedule: Q01DX001 (ip), vehicle: carboxymethylcellulose (CMC)
[9] = dose: 100.0 mg/kg/injection, schedule: Q04DX002 (ip), vehicle: Klucel (hydroxypropylcellulose) (HPC)
[10] = dose: 200.0 mg/kg/injection, schedule: Q01DX009 (ip), vehicle: saline

In the case of `COC(=O)C1C2CC3c4[nH]c5cc(OC)ccc5c4CCN3CC2CC(OC)C1OC` (stereo not drawn), the T/C (dose: 0.78 mg/kg/injection, schedule: Q03HX024 (ip), vehicle: saline) is reported as 104 % of control, the T/C (dose: 1.56 mg/kg/injection, schedule: Q03HX024 (ip), vehicle: saline) is reported as 96 % of control and the T/C (dose: 2.0 mg/kg/injection, schedule: Q01DX009 (ip), vehicle: saline) is reported as 93 % of control. The T/C (dose: 3.12 mg/kg/injection, schedule: Q03HX024 (ip), vehicle: saline) was 100 % of control, the T/C (dose: 4.0 mg/kg/injection, schedule: Q01DX009 (ip), vehicle: saline) was 94 % of control and the T/C (dose: 6.25 mg/kg/injection, schedule: Q03HX024 (ip), vehicle: saline) was 110 % of control. For the same molecule, the T/C (dose: 6.25 mg/kg/injection, schedule: Q04DX003 (ip), vehicle: saline) was 95 % of control, the T/C (dose: 8.0 mg/kg/injection, schedule: Q01DX009 (ip), vehicle: saline) was 88 % of control and the T/C (dose: 12.5 mg/kg/injection, schedule: Q04DX003 (ip), vehicle: saline) was 97 % of control. The T/C (dose: 16.0 mg/kg/injection, schedule: Q01DX009 (ip), vehicle: saline) was 89 % of control, the T/C (dose: 18.75 mg/kg/injection, schedule: Q01DX001 (ip), vehicle: saline) was 102 % of control and the T/C (dose: 25.0 mg/kg/injection, schedule: Q04DX003 (ip), vehicle: saline) was 102 % of control. For the same molecule, the T/C (dose: 32.0 mg/kg/injection, schedule: Q01DX009 (ip), vehicle: saline) was 96 % of control, the T/C (dose: 37.5 mg/kg/injection, schedule: Q01DX001 (ip), vehicle: saline) was 112 % of control and the T/C (dose: 50.0 mg/kg/injection, schedule: Q04DX003 (ip), vehicle: saline) was 105 % of control and 122 % of control. The T/C (dose: 75.0 mg/kg/injection, schedule: Q01DX001 (ip), vehicle: saline) was 112 % of control.
For `Nc1nc(N)c(N=O)c(Nc2ccc(Cl)c(Cl)c2)n1`, the T/C (dose: 3.12 mg/kg/injection, schedule: Q01DX Z (ip), vehicle: carboxymethylcellulose (CMC)) was 117 % of control, the T/C (dose: 6.25 mg/kg/injection, schedule: Q01DX Z (ip), vehicle: carboxymethylcellulose (CMC)) was 104 % of control and the T/C (dose: 12.5 mg/kg/injection, schedule: Q01DX Z (ip), vehicle: carboxymethylcellulose (CMC)) was 106 % of control. The T/C (dose: 25.0 mg/kg/injection, schedule: Q01DX Z (ip), vehicle: carboxymethylcellulose (CMC)) was 109 % of control, the T/C (dose: 100.0 mg/kg/injection, schedule: Q01DX Z (ip), vehicle: carboxymethylcellulose (CMC)) was 89 % of control and the T/C (dose: 400.0 mg/kg/injection, schedule: Q01DX Z (ip), vehicle: carboxymethylcellulose (CMC)) was 86 % of control.
With `CCC(Cl)COP(=O)(OCC(Cl)CC)OC(C(C)C)P(=O)(OCC(Cl)CC)OCC(Cl)CC` (stereo not drawn) the T/C (dose: 100.0 mg/kg/injection, schedule: Q04DX003 (ip), vehicle: Klucel (hydroxypropylcellulose) (HPC)) was 95 % of control, the T/C (dose: 200.0 mg/kg/injection, schedule: Q04DX003 (ip), vehicle: Klucel (hydroxypropylcellulose) (HPC)) was 93 % of control and the T/C (dose: 400.0 mg/kg/injection, schedule: Q04DX003 (ip), vehicle: Klucel (hydroxypropylcellulose) (HPC)) was 90 % of control.
In the case of `O=[N+]([O-])c1[nH]cnc1S(=O)(=O)Cl`, the T/C [1] is reported as 94 % of control, the T/C [2] is reported as 94 % of control and the T/C [3] is reported as 97 % of control.
For `CSc1ccc(C(=O)NN)cc1`, the T/C (dose: 50.0 mg/kg/injection, schedule: Q01DX001 (ip), vehicle: saline) was 101 % of control, the T/C [1] was 101 % of control and the T/C [2] was 101 % of control. For the same molecule, the T/C [3] was 104 % of control.
In the case of `Cc1cc2c(cn1)C(=O)C=CC2=O`, the T/C (dose: 5.0 mg/kg/injection, schedule: Q01DX001 (ip), vehicle: carboxymethylcellulose (CMC)) is reported as 94 % of control and the T/C (dose: 10.0 mg/kg/injection, schedule: Q01DX001 (ip), vehicle: carboxymethylcellulose (CMC)) is reported as 96 % of control.
For `CCOc1ccc2nc(Cl)sc2c1`, the T/C (dose: 50.0 mg/kg/injection, schedule: Q01DX009 (ip), vehicle: Klucel (hydroxypropylcellulose) (HPC)) was 92 % of control, the T/C (dose: 75.0 mg/kg/injection, schedule: Q04DX003 (ip), vehicle: Klucel (hydroxypropylcellulose) (HPC)) was 93 % of control and the T/C (dose: 100.0 mg/kg/injection, schedule: Q01DX009 (ip), vehicle: Klucel (hydroxypropylcellulose) (HPC)) was 94 % of control. The T/C (dose: 150.0 mg/kg/injection, schedule: Q04DX003 (ip), vehicle: Klucel (hydroxypropylcellulose) (HPC)) was 96 % of control.
`COc1cccc2c1C(=O)c1c(O)c3c(c(O)c1C2=O)C[C@@](O)(C(=O)COC(=O)c1ccccc1)C[C@@H]3OC1CC(N)C(O)C(C)O1` (stereo partly drawn) was tested, and the T/C (dose: 0.5 mg/kg/injection, schedule: Q04DX003 (ip), vehicle: Klucel (hydroxypropylcellulose) (HPC)) was 117 % of control, the T/C (dose: 0.8 mg/kg/injection, schedule: Q04DX003 (ip), vehicle: Klucel (hydroxypropylcellulose) (HPC)) was 118 % of control and the T/C (dose: 4.4 mg/kg/injection, schedule: Q04DX003 (ip), vehicle: Klucel (hydroxypropylcellulose) (HPC)) was 152 % of control. The T/C (dose: 6.8 mg/kg/injection, schedule: Q04DX003 (ip), vehicle: Klucel (hydroxypropylcellulose) (HPC)) was 165 % of control and the T/C (dose: 10.0 mg/kg/injection, schedule: Q04DX003 (ip), vehicle: Klucel (hydroxypropylcellulose) (HPC)) was 172 % of control.
In the case of `CC(=O)OCC1OC(OC(C)=O)C(O)C(OC(C)=O)C1OC(C)=O` (stereo not drawn), the T/C [4] is reported as 113 % of control, the T/C [5] is reported as 102 % of control and the T/C (dose: 400.0 mg/kg/injection, schedule: Q01DX001 (ip), vehicle: Klucel (hydroxypropylcellulose) (HPC)) is reported as 117 % of control.
For `CCCCCC(C)(O)CCCCC`, the T/C [6] was 101 % of control, the T/C [7] was 97 % of control and the T/C [8] was 97 % of control.
With `COc1ccccc1OC(=O)Nc1ccc(S(=O)(=O)NC2CCCCC2)cc1` the T/C [1] was 100 % of control, the T/C [2] was 91 % of control and the T/C [3] was 94 % of control.
With `Cc1ccc(C)c(Cn2cnc3c(=S)nc[nH]c32)c1` the T/C [9] was 94 % of control, the T/C (dose: 200.0 mg/kg/injection, schedule: Q04DX002 (ip), vehicle: Klucel (hydroxypropylcellulose) (HPC)) was 94 % of control and the T/C (dose: 400.0 mg/kg/injection, schedule: Q04DX002 (ip), vehicle: Klucel (hydroxypropylcellulose) (HPC)) was 88 % of control.
With `CCCCOC(CN)C(Cl)(Cl)Cl` (stereo not drawn) the T/C (dose: 6.0 mg/kg/injection, schedule: Q04DX002 (ip), vehicle: saline) was 96 % of control and 97 % of control, the T/C (dose: 12.0 mg/kg/injection, schedule: Q04DX002 (ip), vehicle: saline) was 104 % of control and 87 % of control and the T/C (dose: 12.5 mg/kg/injection, schedule: Q01DX009 (ip), vehicle: saline) was 97 % of control and 98 % of control. The T/C [10] was 96 % of control and 101 % of control and the T/C (dose: 200.0 mg/kg/injection, schedule: Q04DX002 (ip), vehicle: saline) was 97 % of control.
For `CC1=CC(=N\S(=O)(=O)c2ccccc2)/C2(Cl)CC(C)=C(C)CC2/C1=N/S(=O)(=O)c1ccccc1` (stereo not drawn), the T/C (dose: 50.0 mg/kg/injection, schedule: Q01DX001 (ip), vehicle: Klucel (hydroxypropylcellulose) (HPC)) was 98 % of control, the T/C [4] was 95 % of control and the T/C [5] was 103 % of control.
In the case of `Cc1nc(Br)c(Br)n1C`, the T/C (dose: 25.0 mg/kg/injection, schedule: Q04DX002 (ip), vehicle: Klucel (hydroxypropylcellulose) (HPC)) is reported as 110 % of control, the T/C (dose: 50.0 mg/kg/injection, schedule: Q01DX009 (ip), vehicle: carboxymethylcellulose (CMC)) is reported as 103 % of control and 104 % of control and the T/C (dose: 50.0 mg/kg/injection, schedule: Q04DX002 (ip), vehicle: Klucel (hydroxypropylcellulose) (HPC)) is reported as 92 % of control. For the same molecule, the T/C (dose: 100.0 mg/kg/injection, schedule: Q01DX009 (ip), vehicle: carboxymethylcellulose (CMC)) was 96 % of control and 118 % of control, the T/C [9] was 100 % of control and 91 % of control and the T/C (dose: 100.0 mg/kg/injection, schedule: Q04DX002 (ip), vehicle: carboxymethylcellulose (CMC)) was 105 % of control. For the same molecule, the T/C (dose: 100.0 mg/kg/injection, schedule: Q04DX003 (ip), vehicle: carboxymethylcellulose (CMC)) was 91 % of control, the T/C (dose: 200.0 mg/kg/injection, schedule: Q01DX009 (ip), vehicle: carboxymethylcellulose (CMC)) was 96 % of control and 110 % of control and the T/C (dose: 200.0 mg/kg/injection, schedule: Q04DX002 (ip), vehicle: carboxymethylcellulose (CMC)) was 97 % of control and 105 % of control. For the same molecule, the T/C (dose: 200.0 mg/kg/injection, schedule: Q04DX003 (ip), vehicle: carboxymethylcellulose (CMC)) was 104 % of control.
For `CC1CC=CC(N2C(=O)c3ccccc3C2=O)C1` (stereo not drawn), the T/C [7] was 91 % of control and the T/C [8] was 93 % of control.
In the case of `CN(C)c1ccc(N=Nc2cc(Cl)cc(Cl)c2)cc1`, the T/C [6] is reported as 89 % of control and the T/C [7] is reported as 91 % of control.
`COc1cc(C(N)=O)cc(OC)c1O` was tested, and the T/C (dose: 100.0 mg/kg/injection, schedule: Q01DX009 (ip), vehicle: saline) was 92 % of control, the T/C (dose: 100.0 mg/kg/injection, schedule: Q04DX003 (ip), vehicle: saline) was 97 % of control and the T/C [10] was 103 % of control. For the same molecule, the T/C (dose: 200.0 mg/kg/injection, schedule: Q04DX003 (ip), vehicle: saline) was 108 % of control, the T/C (dose: 400.0 mg/kg/injection, schedule: Q01DX009 (ip), vehicle: saline) was 113 % of control and the T/C (dose: 400.0 mg/kg/injection, schedule: Q04DX003 (ip), vehicle: saline) was 100 % of control.

From PubChem BioAssay AID248 (DTP/NCI, 2004)
